# Reference: ChEMBL document CHEMBL1201862, “PubChem BioAssay data set” (2004)
# The source made the active and inactive calls.
# Legend:
# [1] = test system: Streptococcus sp. 'group A'; assay: growth inhibition of control SK(-) GAS strain, dose response, counter-screen for streptokinase expression inhibitor project, luminescence, kanamycin, BacTiterGlo, confirmation (AID 1900); type: functional, organism-based
# Streptokinase A = molecular target: T1, Streptokinase A (Streptococcus pyogenes serotype M1, UniProt P10520); assay: S. pyogenes streptokinase expression inhibitors, potency, dose response, plasminogen activation absorbance, OD405 (AID 1914); type: functional, Streptococcus pyogenes M1 GAS;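 further: secreted streptokinase activity via plasminogen activation per viability signal from cell pellet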
# T1 sequence (P10520 whole entry): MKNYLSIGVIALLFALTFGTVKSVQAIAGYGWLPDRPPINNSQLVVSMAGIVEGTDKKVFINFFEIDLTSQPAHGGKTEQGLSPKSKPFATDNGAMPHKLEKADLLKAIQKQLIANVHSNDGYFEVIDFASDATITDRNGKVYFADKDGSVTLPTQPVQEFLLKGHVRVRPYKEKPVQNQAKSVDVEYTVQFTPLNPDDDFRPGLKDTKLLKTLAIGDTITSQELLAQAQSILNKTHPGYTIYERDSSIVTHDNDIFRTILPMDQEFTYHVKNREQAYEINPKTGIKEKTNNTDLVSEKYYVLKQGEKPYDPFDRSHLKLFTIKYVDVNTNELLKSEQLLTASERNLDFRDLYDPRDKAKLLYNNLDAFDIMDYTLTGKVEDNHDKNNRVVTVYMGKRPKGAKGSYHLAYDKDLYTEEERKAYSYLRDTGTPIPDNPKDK
# Streptococcus = assay: Group A Streptococcus viability loss, dose response, counter-screen for streptokinase expression inhibitor project, luminescence, BacTiterGlo (AID 1915); type: functional, organism-based;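 further: potency for reduction of bacterial viability or growth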
# [2] = molecular target: T2, Ubiquitin-conjugating enzyme E2 N (Homo sapiens, UniProt P61088); type: functional;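 further: Dose-response confirmation in a TR-FRET assay detecting UBC13-driven polyubiquitin chain formation, inhibition measured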
# T2 sequence (P61088 whole entry): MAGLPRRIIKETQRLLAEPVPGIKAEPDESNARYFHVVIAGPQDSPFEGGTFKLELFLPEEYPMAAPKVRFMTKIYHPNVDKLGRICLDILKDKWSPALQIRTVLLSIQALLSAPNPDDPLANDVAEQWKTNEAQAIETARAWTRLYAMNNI
# [3] = HEp-2 cell cytotoxicity, dose response, cytotoxicity control for RSV inhibitor project, HTS (AID 2410); type: functional; conditions: human respiratory syncytial virus
# Fatty acid synthase [4] = molecular target: T3, Fatty acid synthase (Homo sapiens, UniProt P49327); assay: FAS thioesterase domain inhibitors, dose response, biochemical, endpoint fluorescence intensity, uHTS hits (AID 624327); type: functional;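 further: fluorescence from hydrolysis of an O-methyl fluorescein acyl ester substrate by the enzyme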
# Fatty acid synthase [5] = molecular target: T3, Fatty acid synthase; assay: FAS thioesterase domain inhibitors, dose response, biochemical, kinetic fluorescence intensity (AID 624326); type: functional;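 further: rate of fluorescence rise from hydrolysis of a fluorogenic O-methyl fluorescein ester substrate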
# Vero = assay: cells; type: functional; conditions: Chlorocebus sabaeus
# [6] = molecular target: Induced myeloid leukemia cell differentiation protein Mcl-1 (Homo sapiens, UniProt Q07820); type: functional
# [7] = molecular target: T4, Carboxy-terminal domain RNA polymerase II polypeptide A small phosphatase 1 (Homo sapiens, UniProt Q9GZU7); assay: inhibitors of CTDSP1, concentration-response testing, biochemical assay, absorbance-based, actives from ultra-high-throughput screening (AID 540297); type: functional
# T4 sequence (Q9GZU7 whole entry): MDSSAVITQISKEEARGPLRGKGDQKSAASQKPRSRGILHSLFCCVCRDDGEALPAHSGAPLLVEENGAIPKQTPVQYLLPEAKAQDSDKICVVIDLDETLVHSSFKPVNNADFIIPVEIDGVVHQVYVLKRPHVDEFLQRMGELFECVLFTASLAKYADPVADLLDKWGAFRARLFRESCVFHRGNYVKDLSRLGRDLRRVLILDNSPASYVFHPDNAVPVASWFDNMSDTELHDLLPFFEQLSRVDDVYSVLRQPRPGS
# [8] = molecular target: T5, Short transient receptor potential channel 4 (Mus musculus, UniProt Q9QUQ5); assay: mouse TRPC4 channel activators, dose response, cell-based, HEK293 TRPC4/mu-opioid, Fluo-4 calcium (AID 434937); type: functional
# T5 sequence (Q9QUQ5 whole entry): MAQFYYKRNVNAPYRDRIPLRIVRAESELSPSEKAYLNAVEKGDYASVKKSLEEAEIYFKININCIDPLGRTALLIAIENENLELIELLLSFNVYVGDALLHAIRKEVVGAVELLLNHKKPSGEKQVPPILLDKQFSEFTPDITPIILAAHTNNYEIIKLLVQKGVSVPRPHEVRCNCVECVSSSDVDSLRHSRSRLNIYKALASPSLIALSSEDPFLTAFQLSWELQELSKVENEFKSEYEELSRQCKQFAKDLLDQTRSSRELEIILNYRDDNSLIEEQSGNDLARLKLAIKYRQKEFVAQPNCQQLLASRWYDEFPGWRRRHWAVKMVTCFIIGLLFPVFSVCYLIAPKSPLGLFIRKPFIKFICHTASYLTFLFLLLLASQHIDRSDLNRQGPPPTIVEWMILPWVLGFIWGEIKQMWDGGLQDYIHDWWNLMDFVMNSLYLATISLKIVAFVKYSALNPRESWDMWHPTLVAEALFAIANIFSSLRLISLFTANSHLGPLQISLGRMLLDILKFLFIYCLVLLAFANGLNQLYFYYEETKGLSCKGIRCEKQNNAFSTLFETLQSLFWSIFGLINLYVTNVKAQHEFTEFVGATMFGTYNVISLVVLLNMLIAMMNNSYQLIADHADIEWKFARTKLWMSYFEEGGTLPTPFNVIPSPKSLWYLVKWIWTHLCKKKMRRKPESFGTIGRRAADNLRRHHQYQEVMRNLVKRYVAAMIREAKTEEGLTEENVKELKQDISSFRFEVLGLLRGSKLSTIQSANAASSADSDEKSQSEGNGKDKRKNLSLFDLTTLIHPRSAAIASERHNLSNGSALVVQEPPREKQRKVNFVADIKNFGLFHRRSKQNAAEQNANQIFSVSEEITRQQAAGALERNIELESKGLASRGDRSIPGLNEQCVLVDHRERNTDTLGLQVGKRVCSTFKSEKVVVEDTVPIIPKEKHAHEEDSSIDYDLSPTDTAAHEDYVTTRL
# [9] = growth suppression of beta-catenin-knockout colon cells, dose response, cell-based, HCT116, human colon tumor (AID 1045); type: functional;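 further: HCT116 colon tumor cells with beta catenin knocked out; cells exposed to compound for 60 hours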
# [10] = growth suppression of PTEN-null colon cells, dose response, cell-based, HCT116 PTEN knockout (AID 1047); type: functional;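 further: HCT116 colon tumor cells with PTEN knocked out; cells exposed to compound for 60 hours before readout; potency for loss of cell viability measured by luminescence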
# Cytochrome P450 3A4 = Cytochrome P450 3A4 (Homo sapiens, UniProt P08684); conditions: Potency;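 further: confirmatory qHTS run detecting inhibitors and substrates of CYP3A4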
# BJ [11] = assay: cells; type: functional, cell-based; conditions: Homo sapiens
# BJ [12] = assay: cytotoxicity toward BJ-TERT fibroblasts, dose response, cell-based, RAS-independent, luminescence (AID 1933); type: functional; conditions: Homo sapiens
# BJ [13] = assay: cytotoxicity toward BJ-TERT-LT-ST fibroblasts, dose response, cell-based, RAS-independent, luminescence (AID 1935); type: functional; conditions: Homo sapiens;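 further: BJ fibroblasts immortalized with TERT plus LT and ST oncogenes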
# [14] = cytotoxicity toward DRD oncogenic fibroblasts, dose response, cell-based, non-viral oncogenic, luminescence (AID 1934); type: functional; conditions: Homo sapiens
# Cytochrome P450 2C19 = Cytochrome P450 2C19 (Homo sapiens, UniProt P33261); assay: Cytochrome panel assay with activity outcomes. Panel member name: p450-cyp2c19 Compounds with AC50 equal or less than 10 uM are considered active; type: functional; conditions: read-out: AC50
# Cytochrome P450 2C9 = Cytochrome P450 2C9 (Homo sapiens, UniProt P11712)
# [15] = cytotoxicity toward NIH3T3 fibroblasts, dose response, counter-screen, cell-based, ATP luminescence, mouse fibroblasts (AID 2010); type: functional;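 further: cells exposed to compound for about 90 hours before reading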
# [16] = inhibitors of intracellular T. cruzi replication, confirmation, NIH3T3 host cells, beta-gal luminescence (AID 2044); type: functional, cell-based;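 further: intracellular parasites grown in NIH/3T3 mouse fibroblasts as host cells; luminescent beta-galactosidase reporter signal from transgenic T. cruzi replicating inside host cells; inhibitors lower the luminescence signal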
# Chain of Induced myeloid leukemia cell differentiation protein Mcl-1 (Q07820 whole entry, the tested form may be a part): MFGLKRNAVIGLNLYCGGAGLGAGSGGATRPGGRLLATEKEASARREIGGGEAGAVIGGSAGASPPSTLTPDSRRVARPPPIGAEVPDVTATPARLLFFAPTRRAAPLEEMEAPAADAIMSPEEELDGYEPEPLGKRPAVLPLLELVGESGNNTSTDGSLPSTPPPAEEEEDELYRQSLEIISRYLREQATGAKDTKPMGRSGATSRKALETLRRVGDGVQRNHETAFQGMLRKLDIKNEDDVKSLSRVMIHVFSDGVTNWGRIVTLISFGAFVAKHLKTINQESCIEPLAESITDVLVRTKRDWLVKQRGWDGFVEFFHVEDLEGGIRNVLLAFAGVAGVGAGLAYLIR
# T3 sequence (P49327 whole entry, the tested form may be a part): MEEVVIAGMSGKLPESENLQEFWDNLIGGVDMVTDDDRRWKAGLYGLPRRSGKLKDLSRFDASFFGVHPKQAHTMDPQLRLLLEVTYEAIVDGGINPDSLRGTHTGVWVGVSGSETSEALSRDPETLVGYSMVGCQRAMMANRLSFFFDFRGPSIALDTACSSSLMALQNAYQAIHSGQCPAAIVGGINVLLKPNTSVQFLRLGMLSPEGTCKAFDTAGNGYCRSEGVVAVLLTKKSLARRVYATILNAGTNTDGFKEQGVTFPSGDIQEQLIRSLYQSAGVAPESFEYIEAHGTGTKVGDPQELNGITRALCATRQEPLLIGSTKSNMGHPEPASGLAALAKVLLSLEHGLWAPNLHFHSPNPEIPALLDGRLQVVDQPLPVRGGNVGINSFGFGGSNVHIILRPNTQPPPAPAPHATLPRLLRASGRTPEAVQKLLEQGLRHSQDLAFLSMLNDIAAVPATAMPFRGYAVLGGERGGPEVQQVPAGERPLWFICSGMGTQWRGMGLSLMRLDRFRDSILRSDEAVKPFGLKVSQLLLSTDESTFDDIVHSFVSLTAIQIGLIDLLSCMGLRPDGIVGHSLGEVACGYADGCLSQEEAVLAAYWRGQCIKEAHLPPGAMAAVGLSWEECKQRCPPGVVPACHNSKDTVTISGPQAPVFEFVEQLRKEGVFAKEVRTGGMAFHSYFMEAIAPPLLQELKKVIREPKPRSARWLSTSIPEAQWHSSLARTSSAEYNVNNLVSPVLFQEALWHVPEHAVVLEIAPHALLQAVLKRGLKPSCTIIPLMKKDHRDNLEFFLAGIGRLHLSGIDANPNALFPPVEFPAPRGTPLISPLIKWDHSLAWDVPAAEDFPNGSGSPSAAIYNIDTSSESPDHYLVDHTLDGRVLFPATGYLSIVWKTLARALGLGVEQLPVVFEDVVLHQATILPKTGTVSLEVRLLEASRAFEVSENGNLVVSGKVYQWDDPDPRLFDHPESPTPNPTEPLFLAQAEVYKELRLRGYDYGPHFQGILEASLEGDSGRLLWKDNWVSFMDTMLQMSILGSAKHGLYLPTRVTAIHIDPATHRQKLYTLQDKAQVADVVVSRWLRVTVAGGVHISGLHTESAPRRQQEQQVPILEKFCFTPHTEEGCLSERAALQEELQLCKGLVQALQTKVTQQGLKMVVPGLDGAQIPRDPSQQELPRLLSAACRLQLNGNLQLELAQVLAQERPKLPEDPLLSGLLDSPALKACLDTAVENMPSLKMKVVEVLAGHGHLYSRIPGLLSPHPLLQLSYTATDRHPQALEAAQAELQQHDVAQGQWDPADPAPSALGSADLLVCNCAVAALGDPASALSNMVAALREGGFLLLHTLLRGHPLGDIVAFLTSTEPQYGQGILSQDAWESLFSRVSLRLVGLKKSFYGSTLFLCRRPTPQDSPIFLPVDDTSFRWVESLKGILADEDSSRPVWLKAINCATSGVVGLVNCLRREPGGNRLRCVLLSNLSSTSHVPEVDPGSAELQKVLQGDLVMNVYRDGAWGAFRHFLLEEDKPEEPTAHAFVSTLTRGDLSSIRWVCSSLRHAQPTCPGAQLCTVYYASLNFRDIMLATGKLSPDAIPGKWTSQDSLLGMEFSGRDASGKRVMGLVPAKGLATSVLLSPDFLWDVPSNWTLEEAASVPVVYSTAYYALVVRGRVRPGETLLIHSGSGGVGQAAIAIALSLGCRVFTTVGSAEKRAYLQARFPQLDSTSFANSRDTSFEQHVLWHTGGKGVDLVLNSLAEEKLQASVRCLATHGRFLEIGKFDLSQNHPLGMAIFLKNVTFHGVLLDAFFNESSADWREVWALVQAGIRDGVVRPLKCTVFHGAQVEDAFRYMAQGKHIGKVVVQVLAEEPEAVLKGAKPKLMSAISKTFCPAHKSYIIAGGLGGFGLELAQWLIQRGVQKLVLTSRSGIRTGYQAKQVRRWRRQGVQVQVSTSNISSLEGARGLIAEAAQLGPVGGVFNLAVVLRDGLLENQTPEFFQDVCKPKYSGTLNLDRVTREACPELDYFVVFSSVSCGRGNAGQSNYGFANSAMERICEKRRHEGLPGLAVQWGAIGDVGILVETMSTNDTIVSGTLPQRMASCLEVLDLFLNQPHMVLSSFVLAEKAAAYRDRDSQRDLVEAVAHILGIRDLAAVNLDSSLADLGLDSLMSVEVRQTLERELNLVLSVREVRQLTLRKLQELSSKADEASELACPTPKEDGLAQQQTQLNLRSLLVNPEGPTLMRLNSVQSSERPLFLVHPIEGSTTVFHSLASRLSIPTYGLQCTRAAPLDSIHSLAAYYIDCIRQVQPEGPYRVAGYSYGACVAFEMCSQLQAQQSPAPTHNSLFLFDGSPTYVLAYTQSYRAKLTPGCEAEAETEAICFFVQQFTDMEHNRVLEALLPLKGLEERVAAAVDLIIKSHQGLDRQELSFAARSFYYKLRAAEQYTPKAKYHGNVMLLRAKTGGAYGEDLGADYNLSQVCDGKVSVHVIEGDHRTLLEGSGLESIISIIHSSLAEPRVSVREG
# Chain of Cytochrome P450 3A4 (P08684 whole entry): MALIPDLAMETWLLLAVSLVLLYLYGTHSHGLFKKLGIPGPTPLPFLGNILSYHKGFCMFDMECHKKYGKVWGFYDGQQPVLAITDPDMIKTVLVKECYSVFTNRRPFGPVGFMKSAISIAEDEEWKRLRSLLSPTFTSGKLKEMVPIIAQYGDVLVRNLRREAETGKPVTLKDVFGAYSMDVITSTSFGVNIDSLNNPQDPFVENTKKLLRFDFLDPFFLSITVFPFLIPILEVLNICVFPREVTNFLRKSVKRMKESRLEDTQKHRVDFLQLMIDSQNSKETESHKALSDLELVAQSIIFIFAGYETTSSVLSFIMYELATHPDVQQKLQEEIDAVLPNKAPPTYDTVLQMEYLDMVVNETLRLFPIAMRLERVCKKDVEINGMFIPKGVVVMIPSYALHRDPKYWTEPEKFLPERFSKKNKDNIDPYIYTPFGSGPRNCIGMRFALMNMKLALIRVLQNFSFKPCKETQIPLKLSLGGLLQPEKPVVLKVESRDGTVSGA
# Chain of Cytochrome P450 2C19 (P33261 whole entry): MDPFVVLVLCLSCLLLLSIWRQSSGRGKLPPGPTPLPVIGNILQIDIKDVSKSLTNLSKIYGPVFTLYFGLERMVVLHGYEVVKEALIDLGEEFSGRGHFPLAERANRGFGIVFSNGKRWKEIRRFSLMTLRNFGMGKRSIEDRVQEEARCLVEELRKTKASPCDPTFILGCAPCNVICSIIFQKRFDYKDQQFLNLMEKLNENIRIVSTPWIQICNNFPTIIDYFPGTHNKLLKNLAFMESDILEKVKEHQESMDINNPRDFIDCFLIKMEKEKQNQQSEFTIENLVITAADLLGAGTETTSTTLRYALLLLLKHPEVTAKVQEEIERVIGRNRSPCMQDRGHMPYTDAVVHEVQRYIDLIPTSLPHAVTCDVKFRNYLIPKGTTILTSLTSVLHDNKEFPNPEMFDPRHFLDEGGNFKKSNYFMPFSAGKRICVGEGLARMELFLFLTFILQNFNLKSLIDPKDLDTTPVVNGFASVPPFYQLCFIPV
# Chain of Cytochrome P450 2C9 (P11712 whole entry): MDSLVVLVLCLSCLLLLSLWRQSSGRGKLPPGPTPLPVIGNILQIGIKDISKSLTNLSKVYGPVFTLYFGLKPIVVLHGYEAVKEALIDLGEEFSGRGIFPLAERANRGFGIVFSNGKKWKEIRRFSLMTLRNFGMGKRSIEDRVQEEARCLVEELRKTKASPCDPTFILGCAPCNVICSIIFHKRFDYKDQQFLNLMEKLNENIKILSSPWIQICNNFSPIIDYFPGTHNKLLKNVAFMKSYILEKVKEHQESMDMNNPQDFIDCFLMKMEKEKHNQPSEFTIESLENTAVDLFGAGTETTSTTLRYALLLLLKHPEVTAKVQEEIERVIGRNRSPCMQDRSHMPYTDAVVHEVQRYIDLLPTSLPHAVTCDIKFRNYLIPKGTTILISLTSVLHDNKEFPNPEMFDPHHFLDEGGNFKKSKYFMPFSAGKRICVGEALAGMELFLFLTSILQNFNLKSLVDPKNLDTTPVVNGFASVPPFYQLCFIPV
compound,measurement,setting,value
N#Cc1c(-c2c(Cl)cccc2Cl)noc1/C=C/Nc1ccc(C(=O)O)cc1,EC50,[1],1.95 µM (active)
same,IC50,cells,32.6 µM (active)
same,EC50,Streptokinase A,> 150 µM (not active)
same,EC50,Streptococcus,17.5 µM (active)
COc1ccc(C)cc1NC(=O)c1cc(S(=O)(=O)N2CCCCC2)ccc1N1CCOCC1,IC50,[2],> 20 µM (inactive)
c1ccc(-c2nn3c(Cn4nnc5ccccc54)nnc3s2)cc1,IC50,cells,> 25 µM (active)
COc1ccc2nc(NC(=O)c3ccccc3[N+](=O)[O-])sc2c1,IC50,cells,9.33 µM (active)
same,CC50,[3],45.6 µM (active)
CC(C)c1ccc(CCNC(=O)c2ccc([N+](=O)[O-])cc2)cc1,IC50,Fatty acid synthase [4],1.51 µM (active)
same,IC50,Fatty acid synthase [5],1.71 µM (active)
Cc1cc(O)c(C(=O)/C=C/c2cccc([N+](=O)[O-])c2)c(=O)o1,CC50,Vero,22.6 µM (active)
O=C(CCCc1ccccc1)Nc1cccc([N+](=O)[O-])c1,IC50,Fatty acid synthase [4],7.58 µM (active)
same,IC50,Fatty acid synthase [5],3.7 µM (active)
COCCCNC(=O)/C(C#N)=C/c1ccc(OCC(=O)O)c(OC)c1,IC50,[6],4.75 µM (active)
same,IC50,[7],2.19 µM (active)
N#Cc1c(-c2ccccc2)c(-c2ccccc2)nn(CC(=O)NNC(=O)Nc2ccc(Cl)cc2)c1=O,IC50,Fatty acid synthase [4],3.55 µM (active)
same,IC50,Fatty acid synthase [5],3.01 µM (active)
COc1ccc(C(=O)C2CCCN(C3CSCCSC3)C2)cc1OC (configuration not stated),EC50,[8],0.944 µM (active)
CN(C)c1ccc(/C=C/C(=O)c2ccccc2)cc1[N+](=O)[O-],EC50,[9],7.13 µM (active)
same,EC50,[10],8.26 µM (active)
CC(C)c1n[nH]c2c1C(C1C=CCCC1)C(C#N)=C(N)O2 (configuration not stated),CC50,Vero,21.9 µM (active)
NCCCCc1ccc2ccc3cccc4ccc1c2c34,CC50,Vero,22.6 µM (active)
same,IC50,[2],> 20 µM (inactive)
Nc1c(C(=O)NCc2ccco2)c2nc3ccccc3nc2n1Cc1ccc(F)cc1,EC50,[9],348 µM (active)
same,EC50,[10],168 µM (active)
CN1C[C@@H]2C(c3ccccc3)C3(c4ccc(C#N)cc4)CC2(C3)[C@H]1c1ccccc1 (some centres not stated),AC50,Cytochrome P450 3A4,25.1 µM (inconclusive)
NC(=S)N=Nc1c(O)[nH]c2ccccc12,IC50,[2],> 20 µM (inactive)
CCO/C(O)=C1/C(C)=NC(SC)=C(C#N)C1CC(C)C (configuration not stated),EC50,BJ [11],35 µM (inconclusive)
same,EC50,BJ [12],7.78 µM (active)
same,EC50,BJ [13],6.28 µM (inconclusive)
same,EC50,[14],2.97 µM (active)
COc1ccc(C(C(=O)NC2CCCCC2)N(C(=O)CCl)c2ccccc2Cl)cc1 (configuration not stated),EC50,BJ [11],> 150 µM (not active)
same,EC50,BJ [12],0.566 µM (inconclusive)
same,EC50,BJ [13],> 150 µM (not active)
same,EC50,[14],4.62 µM (inconclusive)
O=[N+]([O-])c1ccc(N2CCNCC2)cc1NC1CC1,AC50,Cytochrome P450 2C19,25.1 µM (inconclusive)
same,AC50,Cytochrome P450 2C9,15.8 µM (inconclusive)
same,EC50,[8],0.168 µM (active)
Cc1ccccc1C(=O)Nc1nc(-c2cccnc2)cs1,IC50,[6],> 54 µM (active)
c1ccc2c(c1)ccc1ncccc12,AC50,Cytochrome P450 3A4,31.6 µM (inconclusive)
CCCN(CCC)CCNC(=O)CCC(=O)Nc1ccc2nc(N3CCOCC3)cc(C)c2c1,EC50,[8],0.473 µM (active)
CN(CCc1ccccn1)C(=O)CC1C(=O)NCCN1Cc1ccccc1C(F)(F)F (configuration not stated),EC50,[8],5.96 µM (active)
COc1ccc([C@@H]2[C@@H]3C(=O)N(C(C)(C)C)C(=O)[C@@H]3[C@]3(Cc4ccc(Cl)cc4)C(=O)N(c4ccc(Br)cc4)C(=O)N23)cc1,IC50,Fatty acid synthase [4],11.5 µM (active)
same,IC50,Fatty acid synthase [5],11.2 µM (active)
COc1ccc(C[C@H]2CN3C(=NC[C@@H]3Cc3ccc(O)cc3)N2CCNC(=O)c2ccc(C)c(Br)c2)cc1,IC50,[2],> 20 µM (inactive)
CCN(CC)CCSc1nc2cc(OC)ccc2[nH]1,EC50,[8],0.668 µM (active)
O=C(Nc1ccn(CCCNCc2cccc3ccccc23)c(=O)n1)OCc1ccccc1,CC50,Vero,> 25 µM (active)
O=C(C=Cc1ccccc1)c1cccs1,CC50,Vero,> 25 µM (active)
CC(=O)N1N=C(c2ccc(Br)cc2)CC1c1cccc([N+](=O)[O-])c1 (configuration not stated),IC50,Fatty acid synthase [4],7.1 µM (active)
same,IC50,Fatty acid synthase [5],5.14 µM (active)
COc1cc(/C=N/NC(=O)c2sc(N)c(C#N)c2C)ccc1O,IC50,[2],> 20 µM (inactive)
C=CCn1c(/N=C/c2ccc(N(C)C)cc2)nc2ccccc21,EC50,[8],6.68 µM (active)
COc1ccc(C(=O)NCC(=O)N/N=C/c2c(C)[nH]c3ccccc23)cc1OC,IC50,cells,7.07 µM (active)
CCCCNC(=S)N(C)/N=C/c1ccc(OCC(=O)Nc2c(C)cc(C)cc2C)c(OC)c1,EC50,[9],95.1 µM (active)
same,EC50,[10],66.4 µM (active)
CC(=N)/C(C#N)=C(/O)COc1ncnc2ccccc12,IC50,cells,1.77 µM (active)
CCCOc1ccc(/C=N/NC(=O)CSCc2ccc([N+](=O)[O-])cc2)cc1OCC,IC50,[2],20 µM (active)
CCOC(=O)c1c(NC(=O)N/N=C/c2ccc(O)c(OC)c2)sc(C(C)=O)c1C,IC50,[6],1.17 µM (active)
N=c1n(CCN2CCCCC2)c2ccccc2n1CC(O)c1ccc(Cl)c(Cl)c1 (configuration not stated),EC50,[15],> 60 µM (not active)
same,EC50,[16],2.08 µM (active)
same,EC50,[9],4.25 µM (active)
same,EC50,[10],4.29 µM (active)
